According to patent publication US20250381198A1 (Melt Pharmaceuticals, Inc., priority 2024, published 2025):

Key:
[1] = system: subjects undergoing cataract extraction with lens replacement (CELR); assay: Phase 3: surgeon satisfaction (5-point Likert scale); format: in vivo, human; parameters: key to Surgeon Satisfaction Scores, Min / Surgeon Satisfaction Scores, Max: 5=very satisfied; 4=satisfied; 3=neither satisfied nor dissatisfied; 2=dissatisfied; 1=very dissatisfied; settings: ITT analysis set
Description: Surgeon satisfaction with the operative experience was measured postoperatively on Day 1 using a 5-point Likert scale (5=very satisfied; 4=satisfied; 3=neither satisfied nor dissatisfied; 2=dissatisfied; 1=very dissatisfied). […] The means were compared using 2-sample t-tests and the Satterthwaite method. The proportion of satisfied responses (‘Very Satisfied’ or ‘Satisfied’, pooled) were tested using a Pearson's chi-square test; and a Fisher's exact test was used instead if any expected values were <5.

[2] = system: subjects undergoing cataract extraction with lens replacement (CELR); assay: Phase 3: surgery completion; format: in vivo, human
Excerpt: A plot of the Kaplan-Meier Curve for time to achieve preoperative target sedation level for the all-treated analysis set is provided in FIG. 5.

Cc1ncc2n1-c1ccc(Cl)cc1C(c1ccccc1F)=NC2 [Midazolam, 8-chloro-6-(2-fluorophenyl)-1-methyl-4H-imidazo[1,5-a][1,4]benzodiazepine]
Surgeon Satisfaction Scores, Max ([1]; 5-point Likert scale): 5
Surgeon Satisfaction Scores, Mean ± SD ([1]; 5-point Likert scale): 4.8 ± 0.56
Surgeon Satisfaction Scores, Median ([1]; 5-point Likert scale): 5.0
Surgeon Satisfaction Scores, Min ([1]; 5-point Likert scale): 2
Surgeon Satisfaction Score 1 = Very Dissatisfied [1]: 0 n
Completed surgery without intervention due to pain or anxiety ([2]; ITT Analysis Set): 89 (100.0) n (%)
Completed the surgery ([2]; ITT Analysis Set): 89 (100.0) n (%)
Subjects who completed the surgery ([2]; ITT analysis set): 100.0%
Subjects Completed Surgery, % ([2]; Summary of Disposition, value in parentheses, percent of ITT set): (100)
